Measurements reported in US20210244720A1, “Therapeutic Tyrosine Kinase Inhibitors for Relapsing Multiple Sclerosis (RMS)” (Genzyme Corporation, priority 2020, published 2021).

Tested on: participants with relapsing multiple sclerosis (RMS)
Experiment: Phase 2b study in RMS: safety and tolerability (adverse events, laboratory tests, ECG, vital signs)
Details: for proportion of participants with TEAEs: treatment period
[1] = 60 mg, 12 weeks treatment, n = 32
[2] = 60 mg, BTK inhibitor treatment period, safety population, N = 32
[3] = 60 mg, BTK inhibitor treatment period, safety population, N = 33
[4] = 12-week treatment period, 15 mg
[5] = 12-week treatment period, 30 mg
[6] = 12-week treatment period, 60 mg
[7] = All Dose Groups, 12 weeks treatment, N = 130
[8] = All Dose Groups, Weeks 1 to 12, N = 130
[9] = All, BTK inhibitor treatment period, safety population, N = 130

Compound: C=CC(=O)N1CCC[C@@H](n2c(=O)n(-c3ccc(Oc4ccccc4)cc3)c3c(N)nccc32)C1 [the BTK inhibitor, (R)-1-(1-acryloylpiperidin-3-yl)-4-amino-3-(4-phenoxyphenyl)-1H-imidazo[4,5-c]pyridin-2(3H)-one]
- Nasopharyngitis, patients % [1]: (9%)
- Nasopharyngitis, patients n [1]: 3
- Oropharyngeal pain, patients % [1]: (3%)
- Oropharyngeal pain, patients n [1]: 1
- Peripheral edema, patients % [1]: (6%)
- Peripheral edema, patients n [1]: 2
- Respiratory tract infection, patients % [1]: (3%)
- Respiratory tract infection, patients n [1]: 1
- Upper respiratory tract infection, patients % [1]: (3%)
- Upper respiratory tract infection, patients n [1]: 1
- AESI, Alanice aminotransferase increased, n (%) [2]: 1 (3.1)
- AESI, Investigations, n (%) [2]: 1 (3.1)
- Any AESI, n (%) [2]: 1 (3.1)
- Participants with any TEAE, % [3]: (54.5) %
- Participants with any treatment-related TEAE, % [3]: (6.1) %
- treatment-emergent SAE (60 mg, Cohort 1, MS relapse): One
- AESI, Alanice aminotransferase increased, n (%) (60 mg, Weeks 1 to 4, N = 16): 0
- AESI, Investigations, n (%) (60 mg, Weeks 1 to 4, N = 16): 0
- Any AESI, n (%) (60 mg, Weeks 1 to 4, N = 16): 0
- Participants with any TEAE, % (60 mg, Weeks 1 to 4, N = 33): (42.4) %
- Participants with any treatment-related TEAE, % (60 mg, Weeks 1 to 4, N = 33): (9.1) %
- Any AE, % (60 mg, Weeks 1 to 4, n = 16): (31.3%)
- Any treatment-related AE, % (60 mg, Weeks 1 to 4, n = 16): (6.3%)
- Any AE, % (60 mg, Weeks 1 to 12, n = 32): (50.0) %
- Any treatment-related AE, % (60 mg, Weeks 1 to 12, n = 32): (21.9) %
- Serious AE, % (60 mg, Weeks 1 to 12, n = 32): (3.1) %
- correlation between dose administered and number of TEAEs (5-60 mg): no direct correlation
- TEAE alanine aminotransferase increased (12-week treatment period, 5 mg): 1
- TEAE alopecia (12-week treatment period, 5 mg): 1
- TEAE back pain (12-week treatment period, 5 mg): 1
- TEAE gastroenteritis (12-week treatment period, 5 mg): 1
- TEAE headache (12-week treatment period, 5 mg): 1
- TEAE nasopharyngitis (12-week treatment period, 5 mg): 1
- TEAE oedema peripheral (12-week treatment period, 5 mg): 2
- TEAE oropharyngeal pain (12-week treatment period, 5 mg): 1
- TEAE upper respiratory tract infection (12-week treatment period, 5 mg): 2
- TEAE alopecia [4]: 1
- TEAE back pain [4]: 1
- TEAE headache [4]: 3
- TEAE respiratory tract infection [4]: 1
- TEAE upper respiratory tract infection [4]: 2
- TEAE alanine aminotransferase increased [5]: 1
- TEAE back pain [5]: 2
- TEAE headache [5]: 1
- TEAE muscle spasticity [5]: 1
- TEAE nasopharyngitis [5]: 1
- TEAE oropharyngeal pain [5]: 1
- TEAE respiratory tract infection [5]: 1
- TEAE upper respiratory tract infection [5]: 1
- TEAE accidental overdose [6]: 3
- TEAE alanine aminotransferase increased [6]: 1
- TEAE alopecia [6]: 1
- TEAE gastroenteritis [6]: 2
- TEAE headache [6]: 4
- TEAE muscle spasticity [6]: 2
- TEAE nasopharyngitis [6]: 3
- TEAE oedema peripheral [6]: 2
- TEAE oropharyngeal pain [6]: 1
- TEAE respiratory tract infection [6]: 1
- TEAE upper respiratory tract infection [6]: 1
- tolerability (12 weeks of treatment): well-tolerated
- Accidental overdose, patients n (%) [7]: 3 (2%)
- Alanine aminotransferase increased, patients n (%) [7]: 3 (2%)
- Alopecia, patients n (%) [7]: 3 (2%)
- Back pain, patients n (%) [7]: 4 (3%)
- Gastroenteritis, patients n (%) [7]: 3 (2%)
- Headache, patients n (%) [7]: 9 (7%)
- Muscle spasticity, patients n (%) [7]: 3 (2%)
- Nasopharyngitis, patients n (%) [7]: 5 (4%)
- Oropharyngeal pain, patients n (%) [7]: 3 (2%)
- Peripheral edema, patients n (%) [7]: 4 (3%)
- Respiratory tract infection, patients n (%) [7]: 3 (2%)
- Upper respiratory tract infection, patients n (%) [7]: 6 (5%)
- Any AE, % [8]: (53.8) %
- Any treatment-related AE, % [8]: (13.1) %
- Serious AE, % [8]: (0.8) %
- AESI, Alanice aminotransferase increased, n (%) [9]: 2 (1.5)
- AESI, Investigations, n (%) [9]: 2 (1.5)
- Any AESI, n (%) [9]: 2 (1.5)
- Participants with any TEAE, % [9]: (53.1) %
- Participants with any severe TEAE, % [9]: (0.8) %
- Participants with any treatment emergent SAE, % [9]: (0.8) %
- Participants with any treatment-related TEAE, % [9]: (11.5) %
- Participants with treatment emergent SAE(s), Any class, n(%) [9]: 1 (0.8)
- Participants with treatment emergent SAE(s), Multiple sclerosis relapse, n(%) [9]: 1 (0.8)
- Participants with treatment emergent SAE(s), NERVOUS SYSTEM DISORDERS, n(%) [9]: 1 (0.8)
- Participants with any TEAE, % (All, Weeks 1 to 4, N = 130): (38.5) %
- Participants with any treatment-related TEAE, % (All, Weeks 1 to 4, N = 130): (9.2) %
- TEAE headache (Weeks 1 to 4, 5 mg): 3 cases
- TEAE nausea (Weeks 1 to 4, 5 mg): 2 cases
- proportion of participants who experienced TEAEs (Weeks 1 to 4, 5 mg): 31.3%
- TEAE headache (Weeks 1 to 4, 15 mg): 2 cases
- proportion of participants who experienced TEAEs (Weeks 1 to 4, 15 mg): 18.8%
- TEAE nausea (Weeks 1 to 4, 30 mg): 1 cases
- proportion of participants who experienced TEAEs (Weeks 1 to 4, 30 mg): 12.5%
- TEAE headache (Weeks 1 to 4, 60 mg): 1 cases
- proportion of participants who experienced TEAEs (Weeks 1 to 4, 60 mg): 31.3%
- TEAE upper respiratory tract infection (Weeks 1 to 4, each treatment group): 1 case
- TEAEs leading to permanent treatment discontinuation (all dose groups): no TEAEs leading to permanent treatment discontinuation
- intensity of TEAEs (all dose groups): mild or moderate intensity except for one severe TEAE
- PCSAs related to vital signs, labs and ECGs (multiple treatment groups): no dose relationship
- proportion of participants with TEAEs (5 mg): 57.6%
- proportion of participants with TEAEs (15 mg): 53.1%
- proportion of participants with TEAEs (30 mg): 54.5%
- proportion of participants with TEAEs (60 mg): 50.0%
- AESIs (alanine aminotransferase increased >3×ULN) (whole study): two
- deaths (whole study): No deaths
